The target of experiment [1] is T1, Mitogen-activated protein kinase 8 (Homo sapiens, UniProt P45983). Nature of the experiment: Inhibition of human JNK1 at 10 uM in presence of ATP relative to control.
The target of experiment [2] is T2, Mitogen-activated protein kinase 9 (Homo sapiens, UniProt P45984). Nature of the experiment: Inhibition of human JNK2 at 10 uM in presence of ATP relative to control.
Target sequence in this assay (P45984 whole entry, looked up): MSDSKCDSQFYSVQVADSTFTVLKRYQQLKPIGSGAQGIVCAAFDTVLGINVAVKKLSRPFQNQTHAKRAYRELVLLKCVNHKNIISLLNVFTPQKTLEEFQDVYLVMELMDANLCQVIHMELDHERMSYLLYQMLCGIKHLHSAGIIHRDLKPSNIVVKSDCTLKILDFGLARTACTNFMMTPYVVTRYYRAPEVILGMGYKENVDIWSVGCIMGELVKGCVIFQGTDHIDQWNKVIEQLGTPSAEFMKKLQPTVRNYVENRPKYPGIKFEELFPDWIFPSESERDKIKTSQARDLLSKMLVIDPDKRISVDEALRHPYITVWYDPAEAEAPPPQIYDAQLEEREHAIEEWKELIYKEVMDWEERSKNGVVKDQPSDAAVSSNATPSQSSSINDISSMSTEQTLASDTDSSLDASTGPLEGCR
Experiment [3] addresses T3, Mitogen-activated protein kinase 10 (Homo sapiens, UniProt P53779). Nature of the experiment: Inhibition of human JNK3 at 10 uM in presence of ATP relative to control.
Experiment [4] deals with T1, Mitogen-activated protein kinase 8. Briefly: Inhibition of human JNK1 in presence of ATP.
Experiment [5] deals with T2, Mitogen-activated protein kinase 9. Briefly: Inhibition of human JNK2 in presence of ATP.
Target sequence in this assay (P45984 whole entry): as the sequence (P45984 whole entry, looked up) above
For experiment [6], the target named is T3, Mitogen-activated protein kinase 10. Nature of the experiment: Inhibition of human JNK3 in presence of ATP.
Experiment [7] deals with Voltage-gated inwardly rectifying potassium channel KCNH2 (Homo sapiens, UniProt Q12809). Briefly: Inhibition of human ERG. Type of experiment: toxicity.
The test system of experiment [8] is K562. Briefly: Induction of cell cycle arrest in human K562 cells assessed as accumulation of cells at G2/M phase at 1.25 uM measured after 24 hrs by PI staining based flow cytometry analysis (reference value: 25.62%). The format is functional.
Experiment [9] deals with K562. Briefly: Induction of cell cycle arrest in human K562 cells assessed as accumulation of cells at G2/M phase at 2.5 uM measured after 24 hrs by PI staining based flow cytometry analysis (reference value: 25.62%). Type of experiment: functional.
Experiment [10] concerns K562. Nature of the experiment: Induction of cell cycle arrest in human K562 cells assessed as accumulation of cells at G2/M phase at 5 uM measured after 24 hrs by PI staining based flow cytometry analysis (reference value: 25.62%). The format is functional.
The test system of experiment [11] is K562. Nature of the experiment: Induction of cell cycle arrest in human K562 cells assessed as accumulation of cells at S phase at 1.25 uM measured after 24 hrs by PI staining based flow cytometry analysis (reference value: 24.75%). The format is functional.
Experiment [12] concerns K562. Nature of the experiment: Induction of cell cycle arrest in human K562 cells assessed as accumulation of cells at S phase at 2.5 uM measured after 24 hrs by PI staining based flow cytometry analysis (reference value: 24.75%). Type of experiment: functional.
Experiment [13] concerns K562. Nature of the experiment: Induction of cell cycle arrest in human K562 cells assessed as accumulation of cells at S phase at 5 uM measured after 24 hrs by PI staining based flow cytometry analysis (reference value: 24.75%). Type of experiment: functional.
Experiment [14] deals with K562. Nature of the experiment: Induction of cell cycle arrest in human K562 cells assessed as accumulation of cells at G0/G1 phase at 1.25 uM measured after 24 hrs by PI staining based flow cytometry analysis (reference value: 46.72%). The format is functional.
The subject of experiment [15] is K562. Briefly: Induction of cell cycle arrest in human K562 cells assessed as accumulation of cells at G0/G1 phase at 2.5 uM measured after 24 hrs by PI staining based flow cytometry analysis (reference value: 46.72%). Type of experiment: functional.
Experiment [16] concerns K562. Nature of the experiment: Induction of cell cycle arrest in human K562 cells assessed as accumulation of cells at G0/G1 phase at 5 uM measured after 24 hrs by PI staining based flow cytometry analysis (reference value: 46.72%). The format is functional.
Experiment [17] relates to K562. Briefly: Induction of cell cycle arrest in human K562 cells assessed as accumulation of cells at SubG1 phase at 1.25 uM measured after 24 hrs by PI staining based flow cytometry analysis (reference value: 2.21%). The format is functional.
For experiment [18], the system named is K562. Briefly: Induction of cell cycle arrest in human K562 cells assessed as accumulation of cells at SubG1 phase at 2.5 uM measured after 24 hrs by PI staining based flow cytometry analysis (reference value: 2.21%). The format is functional.
Experiment [19] has as its system K562. Nature of the experiment: Induction of cell cycle arrest in human K562 cells assessed as accumulation of cells at SubG1 phase at 5 uM measured after 24 hrs by PI staining based flow cytometry analysis (reference value: 2.21%). The format is functional.
Experiment [20] relates to K562. Briefly: Induction of apoptosis in human K562 cells assessed as early apoptotic cells at 1.25 uM incubated for 24 hrs by annexinV and propidium iodide staining based flow cytometry analysis (reference value: 1.17%). The format is functional.
Experiment [21] concerns K562. Nature of the experiment: Induction of apoptosis in human K562 cells assessed as early apoptotic cells at 2.5 uM incubated for 24 hrs by annexinV and propidium iodide staining based flow cytometry analysis (reference value: 1.17%). Type of experiment: functional.
The test system of experiment [22] is K562. Briefly: Induction of apoptosis in human K562 cells assessed as early apoptotic cells at 5 uM incubated for 24 hrs by annexinV and propidium iodide staining based flow cytometry analysis (reference value: 1.17%). Type of experiment: functional.
Experiment [23] concerns K562. Nature of the experiment: Induction of apoptosis in human K562 cells assessed as late apoptotic cells at 1.25 uM incubated for 24 hrs by annexinV and propidium iodide staining based flow cytometry analysis (reference value: 0.82%). The format is functional.
In experiment [24] the test system is K562. Briefly: Induction of apoptosis in human K562 cells assessed as late apoptotic cells at 2.5 uM incubated for 24 hrs by annexinV and propidium iodide staining based flow cytometry analysis (reference value: 0.82%). Type of experiment: functional.
Experiment [25] concerns K562. Briefly: Induction of apoptosis in human K562 cells assessed as late apoptotic cells at 5 uM incubated for 24 hrs by annexinV and propidium iodide staining based flow cytometry analysis (reference value: 0.82%). Type of experiment: functional.
The subject of experiment [26] is K562. Nature of the experiment: Induction of autophagy in human K562 cells assessed as increase in beclin-1 level at 2.5 to 5 uM measured after 24 hrs by Western blotting analysis. The format is functional, cell-based. The conditions noted are these: dose 2.5-5 µM.
Experiment [27] has as its target T1, Mitogen-activated protein kinase 8. Nature of the experiment: Inhibition of JNK1 (unknown origin) expressed in HEK293 cells assessed as target engagement incubated for 1 hr by NanoBRET assay. The format is cell-based.
For experiment [28], the target named is Cytochrome P450 2D6 (Homo sapiens, UniProt P10635). Nature of the experiment: Inhibition of CYP2D6 (unknown origin) using vivid EOMCC as substrate. The format is ADME.
In experiment [29] the target is Cytochrome P450 3A4 (Homo sapiens, UniProt P08684). Nature of the experiment: Inhibition of CYP3A4 (unknown origin) using vivid BOMCC as substrate. Type of experiment: ADME.

The source made the active and inactive calls. The rule behind the calls is not given here.

For 30 molecules, inhibition, IC50 and Activity results are on record in ChEMBL document CHEMBL5634117 (Eur J Med Chem, 2023).

T1 sequence (P45983 whole entry): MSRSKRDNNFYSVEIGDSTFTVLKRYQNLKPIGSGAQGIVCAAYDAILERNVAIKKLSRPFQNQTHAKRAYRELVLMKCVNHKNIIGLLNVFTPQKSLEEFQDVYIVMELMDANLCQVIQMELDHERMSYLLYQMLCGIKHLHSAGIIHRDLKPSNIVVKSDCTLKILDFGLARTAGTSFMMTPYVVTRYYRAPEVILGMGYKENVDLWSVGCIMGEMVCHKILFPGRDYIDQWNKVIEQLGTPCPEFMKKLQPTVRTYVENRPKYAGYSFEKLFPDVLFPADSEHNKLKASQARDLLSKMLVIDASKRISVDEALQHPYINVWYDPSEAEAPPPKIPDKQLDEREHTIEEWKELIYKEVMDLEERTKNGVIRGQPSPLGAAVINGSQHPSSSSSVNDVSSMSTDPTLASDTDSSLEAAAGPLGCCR
T3 sequence (P53779 whole entry): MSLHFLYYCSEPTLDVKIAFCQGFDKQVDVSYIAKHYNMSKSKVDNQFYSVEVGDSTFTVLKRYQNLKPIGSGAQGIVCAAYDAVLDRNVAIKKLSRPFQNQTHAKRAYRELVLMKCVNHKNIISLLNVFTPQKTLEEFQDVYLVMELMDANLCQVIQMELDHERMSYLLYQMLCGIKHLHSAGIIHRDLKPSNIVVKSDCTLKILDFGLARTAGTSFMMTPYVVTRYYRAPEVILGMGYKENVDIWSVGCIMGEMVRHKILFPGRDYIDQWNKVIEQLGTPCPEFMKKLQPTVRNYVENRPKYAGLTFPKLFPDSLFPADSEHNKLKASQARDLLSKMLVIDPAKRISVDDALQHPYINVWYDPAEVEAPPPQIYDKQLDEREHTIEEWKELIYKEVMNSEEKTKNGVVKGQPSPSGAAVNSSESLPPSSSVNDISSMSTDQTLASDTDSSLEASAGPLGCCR
Voltage-gated inwardly rectifying potassium channel KCNH2, sequence (Q12809 whole entry): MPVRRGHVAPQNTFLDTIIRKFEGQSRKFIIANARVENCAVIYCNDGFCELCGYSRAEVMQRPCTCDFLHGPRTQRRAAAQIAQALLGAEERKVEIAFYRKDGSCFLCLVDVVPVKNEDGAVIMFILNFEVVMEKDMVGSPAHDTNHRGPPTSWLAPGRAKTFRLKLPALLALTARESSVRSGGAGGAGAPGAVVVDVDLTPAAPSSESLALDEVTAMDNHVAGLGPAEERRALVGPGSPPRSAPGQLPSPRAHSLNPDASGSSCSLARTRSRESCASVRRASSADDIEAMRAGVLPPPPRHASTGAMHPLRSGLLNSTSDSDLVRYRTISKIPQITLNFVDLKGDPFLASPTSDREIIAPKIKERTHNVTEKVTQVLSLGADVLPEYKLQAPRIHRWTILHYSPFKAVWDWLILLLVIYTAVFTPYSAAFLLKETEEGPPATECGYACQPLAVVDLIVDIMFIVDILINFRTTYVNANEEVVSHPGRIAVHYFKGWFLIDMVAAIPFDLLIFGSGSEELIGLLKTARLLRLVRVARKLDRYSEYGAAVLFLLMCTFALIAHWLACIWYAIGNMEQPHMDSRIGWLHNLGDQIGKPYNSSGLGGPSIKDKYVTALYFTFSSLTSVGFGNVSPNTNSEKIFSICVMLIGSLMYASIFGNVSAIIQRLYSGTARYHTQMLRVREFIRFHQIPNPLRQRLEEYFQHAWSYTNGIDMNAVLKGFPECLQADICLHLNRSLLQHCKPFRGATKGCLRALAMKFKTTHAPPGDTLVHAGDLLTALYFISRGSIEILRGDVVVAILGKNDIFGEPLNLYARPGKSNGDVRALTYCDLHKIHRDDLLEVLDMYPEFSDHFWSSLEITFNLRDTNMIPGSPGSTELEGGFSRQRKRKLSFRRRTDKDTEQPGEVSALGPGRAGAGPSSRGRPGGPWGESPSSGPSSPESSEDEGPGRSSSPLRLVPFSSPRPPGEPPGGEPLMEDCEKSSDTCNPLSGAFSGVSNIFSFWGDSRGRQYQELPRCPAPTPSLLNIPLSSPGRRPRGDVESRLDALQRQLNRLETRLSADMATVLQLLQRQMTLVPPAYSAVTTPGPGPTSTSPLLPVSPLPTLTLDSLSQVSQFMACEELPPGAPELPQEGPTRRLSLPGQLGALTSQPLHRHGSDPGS
Cytochrome P450 3A4, sequence (P08684 whole entry): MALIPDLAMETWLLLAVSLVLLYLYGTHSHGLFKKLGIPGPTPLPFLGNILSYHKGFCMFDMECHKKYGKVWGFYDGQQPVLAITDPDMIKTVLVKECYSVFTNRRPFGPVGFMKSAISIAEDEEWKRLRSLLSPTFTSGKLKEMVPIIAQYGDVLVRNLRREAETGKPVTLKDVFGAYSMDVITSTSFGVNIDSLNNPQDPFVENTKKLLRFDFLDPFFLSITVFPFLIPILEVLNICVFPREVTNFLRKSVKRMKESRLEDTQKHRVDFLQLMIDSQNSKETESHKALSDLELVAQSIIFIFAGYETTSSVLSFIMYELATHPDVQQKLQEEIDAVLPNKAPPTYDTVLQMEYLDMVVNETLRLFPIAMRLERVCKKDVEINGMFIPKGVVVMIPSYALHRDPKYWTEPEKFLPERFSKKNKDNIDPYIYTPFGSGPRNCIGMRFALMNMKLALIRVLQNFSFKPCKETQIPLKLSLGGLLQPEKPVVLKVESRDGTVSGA
Cytochrome P450 2D6, sequence (P10635 whole entry): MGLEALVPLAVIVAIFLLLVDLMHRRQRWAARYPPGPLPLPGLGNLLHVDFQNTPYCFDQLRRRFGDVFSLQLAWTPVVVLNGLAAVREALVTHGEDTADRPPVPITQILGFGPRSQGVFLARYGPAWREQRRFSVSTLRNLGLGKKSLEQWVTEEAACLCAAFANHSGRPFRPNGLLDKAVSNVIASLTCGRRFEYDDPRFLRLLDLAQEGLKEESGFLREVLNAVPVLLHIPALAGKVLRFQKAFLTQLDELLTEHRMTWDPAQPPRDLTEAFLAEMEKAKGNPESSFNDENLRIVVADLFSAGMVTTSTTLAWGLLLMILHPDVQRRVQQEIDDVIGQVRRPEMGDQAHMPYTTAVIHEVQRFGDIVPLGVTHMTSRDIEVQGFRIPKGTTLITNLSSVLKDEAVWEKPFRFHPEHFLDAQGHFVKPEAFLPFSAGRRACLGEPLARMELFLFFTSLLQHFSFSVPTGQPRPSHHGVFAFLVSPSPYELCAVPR

Take `Cc1ccc(S(=O)(=O)NCCCNc2cc(-c3cn(C(C)(C)C)nc3-c3cccc(O)c3)ccn2)cc1`: the inhibition in experiment [1] was 97%; in experiment [2], 98.8%; in experiment [3] it was 98.2%. The IC50 in experiment [4] came out at 15.1 nM.
As to `COc1cccc(-c2nn(C(C)(C)C)cc2-c2ccnc(NCCNS(=O)(=O)c3ccccc3)c2)c1`, the inhibition in experiment [1] is 3.74%.
The same measure, in the same setting: next, `COc1ccc(S(=O)(=O)NCCNc2cc(-c3cn(C(C)(C)C)nc3-c3cccc(OC)c3)ccn2)cc1`: 9.82%; `COc1cccc(-c2nn(C(C)(C)C)cc2-c2ccnc(NCCNS(=O)(=O)c3ccc(Br)cc3)c2)c1`: -6.18%.
For the molecule `COc1cccc(-c2nn(C(C)(C)C)cc2-c2ccnc(NCCCNS(=O)(=O)c3ccc(C(F)(F)F)cc3)c2)c1`, the inhibition in [1] was found to be 13.2%.
On to `CC(C)(C)n1cc(-c2ccnc(NCCCNS(=O)(=O)c3ccccc3)c2)c(-c2cccc(O)c2)n1`, for which the figures for the inhibition in experiment [1], in [2] and in [3] were 99.4%, 98.5% and 99.1%, respectively. The values for the half-inhibitory concentration (IC50) in experiment [4], in experiment [5] and in [6] were 3.75 nM, 23.1 nM and 20.2 nM, respectively.
`CCNC1CCNC1` (centres undefined) showed an IC50 in experiment [7] of 12.8 nM.
As for `COc1cccc(-c2nn(C(C)(C)C)cc2-c2ccnc(NCCCNS(=O)(=O)c3ccc(Br)cc3)c2)c1`, the figures for the inhibition in [1] and in experiment [2] were 73.7% and 57.7%, respectively.
Consider `COc1cccc(-c2nn(C(C)(C)C)cc2-c2ccnc(NCCCNS(=O)(=O)c3ccc(C)cc3)c2)c1`, for which the inhibition in experiment [1] stood at 37.8%.
As to `CC(C)(C)n1cc(-c2ccnc(NCCNS(=O)(=O)c3cccc4ccccc34)c2)c(-c2cccc(O)c2)n1`, the inhibition in experiment [1] stood at 63.7%.
Regarding `CC(C)(C)n1cc(-c2ccnc(NCCCNS(=O)(=O)c3ccc(F)cc3)c2)c(-c2cccc(O)c2)n1`, the inhibition was 96.8% in experiment [1], 98.9% in [2] and 98.5% in [3]. The IC50 in [4] amounted to 3.5 nM; in experiment [5], 19.8 nM; in [6] it was 10.1 nM.
Take `CC(C)(C)n1cc(-c2ccnc(NCCNS(=O)(=O)c3ccc(F)cc3)c2)c(-c2cccc(O)c2)n1`: in [1], the inhibition is 87.2%.
Consider `CC(C)(C)n1cc(-c2ccnc(NCCNS(=O)(=O)c3ccc(Cl)cc3)c2)c(-c2cccc(O)c2)n1`, for which the inhibition in experiment [1] was 78.7%.
`COc1cccc(-c2nn(C(C)(C)C)cc2-c2ccnc(NCCCNS(=O)(=O)c3ccc(Cl)cc3)c2)c1`: the inhibition in [1] stood at 79.6%; in experiment [2], 68.2%.
As to `COc1cccc(-c2nn(C(C)(C)C)cc2-c2ccnc(NCCCNS(=O)(=O)c3ccccc3)c2)c1`, in experiment [1], the inhibition was 38.8%.
Take `COc1cccc(-c2nn(C(C)(C)C)cc2-c2ccnc(NCCNS(=O)(=O)c3ccc(F)cc3)c2)c1`: in [1], the inhibition amounted to 3.91%.
Take `CC(C)(C)n1cc(-c2ccnc(NCCCNS(=O)(=O)c3cccc(F)c3)c2)c(-c2cccc(O)c2)n1`: the figures for the inhibition in experiment [1], in experiment [2] and in experiment [3] were 98.4%, 98.5% and 98.2%, respectively. Further, the IC50 in experiment [4] was determined as 6.81 nM.
For the molecule `CC(C)(C)n1cc(-c2ccnc(NCCNS(=O)(=O)c3cccc(F)c3)c2)c(-c2cccc(O)c2)n1`, the inhibition in experiment [1] stood at 86.4%.
For `COc1cccc(-c2nn(C(C)(C)C)cc2-c2ccnc(NCCCNS(=O)(=O)c3cccc(F)c3)c2)c1`, the inhibition in experiment [1] is 29.9%.
Regarding `COc1ccc(S(=O)(=O)NCCNc2cc(-c3cn(C(C)(C)C)nc3-c3cccc(O)c3)ccn2)cc1`, the inhibition came out at 90.6% in [1], 94.4% in experiment [2] and 96.2% in experiment [3]. Moreover, in [4], the IC50 is 55.8 nM.
On to `COc1ccc(S(=O)(=O)NCCCNc2cc(-c3cn(C(C)(C)C)nc3-c3cccc(OC)c3)ccn2)cc1`, for which the inhibition in experiment [1] amounted to 49.2%.
Same read-out and setting: next, `COc1cccc(-c2nn(C(C)(C)C)cc2-c2ccnc(NCCCNS(=O)(=O)c3cccc4ccccc34)c2)c1`: 21.3%; `Cc1ccc(S(=O)(=O)NCCNc2cc(-c3cn(C(C)(C)C)nc3-c3cccc(O)c3)ccn2)cc1`: 85.8%.
Take `COc1ccc(S(=O)(=O)NCCCNc2cc(-c3cn(C(C)(C)C)nc3-c3cccc(O)c3)ccn2)cc1`: the inhibition was 99.6% in [1], 98.5% in experiment [2] and 98% in experiment [3]. The IC50 in experiment [4] worked out at 1.81 nM; in experiment [5], 12.7 nM; in [6], 10.5 nM; in [27], 2810 nM; in experiment [28], 26.7 nM; in experiment [29], 383 nM. In experiment [7], the IC50 was found to be 4820 nM. In addition, the Activity in experiment [8] came out at 45.33%; in experiment [9], 62.99%; in [10], 98.97%; in experiment [11] it was 32.54%; in experiment [12] it was 29.83%; in experiment [13], 0.34%. For the same molecule, the Activity was 19.83% in experiment [14]; 6.24% in experiment [15]; 0.17% in [16]; 1.34% in [17]; 0.34% in experiment [18]; 0.09% in [19]. Moreover, the Activity in experiment [20] is listed as 1.89%; in [21], 1.94%; in experiment [22], 2.14%; in experiment [23] it was 0.52%; in experiment [24] it was 0.73%; in experiment [25] it was 0.59%. The outcome in [26] was Active.
As for `CC(C)(C)n1cc(-c2ccnc(NCCNS(=O)(=O)c3ccc(Br)cc3)c2)c(-c2cccc(O)c2)n1`, the inhibition in [1] came to 74%.
As to `CC(C)(C)n1cc(-c2ccnc(NCCNS(=O)(=O)c3ccccc3)c2)c(-c2cccc(O)c2)n1`, the inhibition in experiment [1] was determined as 81.8%.
Consider `COc1cccc(-c2nn(C(C)(C)C)cc2-c2ccnc(NCCNS(=O)(=O)c3ccc(Cl)cc3)c2)c1`, for which the inhibition in experiment [1] is 0.99%.
Still for that read-out and setting: next, `CC(C)(C)n1cc(-c2ccnc(NCCNS(=O)(=O)c3ccc(C(F)(F)F)cc3)c2)c(-c2cccc(O)c2)n1`: 66.6%; `COc1cccc(-c2nn(C(C)(C)C)cc2-c2ccnc(NCCNS(=O)(=O)c3ccc(C)cc3)c2)c1`: 4.68%.
For `COc1cccc(-c2nn(C(C)(C)C)cc2-c2ccnc(NCCCNS(=O)(=O)c3ccc(F)cc3)c2)c1`, the inhibition in experiment [1] amounted to 41.4%.
